Results: EP4752152A1, “STEROID COMPOUND, AND PREPARATION METHOD THEREFOR AND USE THEREOF” (Cholesgen (Shanghai) Co.Ltd., priority 2023, dated 2025)
Read-outs that look alike come from different tables or passages of the source.

Key:
[1] = tested on: SREBP pathway; experiment: SREBP luciferase reporter gene system (SRE-luciferase assay); type: cell-based, human; details: Huh-7/SRE-luc cells, sterol-deficient medium, 0.01-10 µM
Summary of the method: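 Huh-7 cells stably carrying LDLR promoter-luciferase plus GFP were treated 16 h in sterol-deficient medium (5% lipoprotein-deficient serum, 2 µM lovastatin, 10 µM mevalonic acid) at 0.01–10 µM. Luciferase/GFP ratio measured as pathway activity; inhibition versus DMSO fitted to a four-parameter model for IC50.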

[2] = tested on: Fatty Acid Synthase (FASN) gene; experiment: Inhibition of FASN gene expression (qPCR) in Huh-7 cells; type: cell-based, human; details: Huh-7 cells, starvation medium, 16 hours, qPCR, class symbols, read-out: FASN IC50
Method: Huh-7 cells (purchased from ATCC) were cultured in DMEM medium (containing 10% fetal bovine serum LONSERA S711-001S) at 37°C in a 5% CO2 incubator. After 24 hours, the original medium was aspirated and replaced with DMEM starvation medium (containing 5% lipoprotein deficient serum (LPDS), 2 µM lovastatin, and 10 µM mevalonate). The control group was treated with dimethyl sulfoxide (DMSO), while the compound treatment groups were treated with different concentrations of compounds. The highest concentration of the compound was 3000 nM, with 3-fold dilutions, totaling 5 concentrations. The cells were cultured for 16 hours. Cell lysis was performed, followed by reverse transcription from cells to cDNA, and qPCR was performed to detect the expression of the SREBP target gene Fatty Acid Synthase (FASN) gene (FASN gene forward primer sequence: 5'-[…]-3', reverse primer sequence: 5'-[…]-3'). The IC50 was calculated. The test data for each test compound were analyzed using Prism software (with the DMSO-treated group as the reference to calculate the compound inhibition rate, fitted using the Prism log(inhibitor) vs. responseVariable slope (four-parameter) model, calculation formula: Y = Bottom + (Top - Bottom)/(1 + 10^((LogIC50 - X) × HillSlope))), to obtain the IC50 parameters of the compounds. Table 4: Inhibition results of FASN gene expression by compounds from some examples

C[C@H](CCCC(O)c1cccc(OC(F)(F)F)c1)[C@H]1CC[C@H]2[C@H]3[C@H](CC[C@]12C)[C@@]1(C)CC[C@H](O)[C@H](O)[C@@H]1CC3(F)F (single isomer, unassigned) [Compound 191, (1R,3aS,3bS,5aR,6R,7S,9aR,9bS,11aR)-4,4-difluoro-1-[(2R,6R)-6-hydroxy-6-{3-[(trifluoromethyl)oxy]phenyl}hexan-2-yl]-9a,11a-dimethylhexadecahydro-1H-cyclopenta[1,2-a]phenanthrene-6,7-diol or (1R,3aS,3bS,5aR,6R,7S,9aR,9bS,11aR)-4,4-difluoro-1-[(2R,6S)-6-hydroxy-6-(2-methoxypyridin-3-yl)hexan-2-yl]-9a,11a-dimethylhexadecahydro-1H-cyclopenta[1,2-a]phenanthrene-6,7-diol]
IC50 ([1]; 16 hours): 0.246 µM
IC50 ([2]; Homo sapiens, Huh-7, 16 h): 200 to 500 nM

COc1ccc(C(O)CCC[C@@H](C)[C@H]2CC[C@H]3[C@H]4[C@H](CC[C@]23C)[C@@]2(C)CC[C@H](O)[C@H](O)[C@@H]2CC4(F)F)c(F)c1 (stereo partly drawn) [Compound 67, (1R,3aS,3bS,5aR,6R,7S,9aR,9bS,11aR)-4,4-difluoro-1-[(2R)-6-(2-fluoro-4-methoxyphenyl)-6-hydroxyhexan-2-yl]-9a,11a-dimethylhexadecahydro-1H-cyclopenta[1,2-a]phenanthrene-6,7-diol]
IC50 ([1]; Homo sapiens, Huh-7, 16 h): 0.203 µM
IC50 ([2]; Homo sapiens, Huh-7, 16 h): 200 to 500 nM

C[C@H](CCCC(O)c1nc2ccccc2[nH]1)[C@H]1CC[C@H]2[C@H]3[C@H](CC[C@]12C)[C@@]1(C)CC[C@H](O)[C@H](O)[C@@H]1CC3(F)F (stereo partly drawn) [Compound 303, (1R,3aS,3bS,5aR,6R,7 S,9aR,9bS,11aR)-4,4-Difluoro-1-[(2R)-6-hydroxy-6-(1H-benzo[d]imidazol-2-yl)hexan-2-yl]-9a,11a-dimethylhexadecahydro-1H-cyclopenta[1,2-a]phenanthrene-6,7-diol]
IC50 ([1]; Homo sapiens, Huh-7, 16 h): 0.109 µM
IC50 ([2]; Homo sapiens, Huh-7, 16 h): < 200 nM

COc1ccc(C(O)CCC[C@@H](C)[C@H]2CC[C@H]3[C@H]4[C@H](CC[C@]23C)[C@@]2(C)CC[C@H](O)[C@H](O)[C@@H]2CC4(F)F)c(OC)n1 (stereo partly drawn) [Compound 177, (1R,3aS,3bS,5aR,6R,7 S,9aR,9bS,11aR)-1-[(2R)-6-(2,6-Dimethoxypyridin-3-yl)-6-hydroxyhexan-2-yl]-4,4-difluoro-9a,11a-dimethylhexadecahydro-1H-cyclopenta[1,2-a]phenanthrene-6,7-diol]
IC50 ([1]; Homo sapiens, Huh-7, 16 h): 0.186 µM
IC50 ([2]; Homo sapiens, Huh-7, 16 h): < 200 nM

C[C@H](CCCC(O)c1nc2cnccc2n1C)[C@H]1CC[C@H]2[C@H]3[C@H](CC[C@]12C)[C@@]1(C)CC[C@H](O)[C@H](O)[C@@H]1CC3(F)F (stereo partly drawn) [Compound 311, (1R,3aS,3bS,5aR,6R,7 S,9aR,9bS,11aR)-4,4-Difluoro-1-[(2R)-6-hydroxy-6-(1-methylimidazo[5,4-c]pyridin-2-yl)hexan-2-yl]-9a,11a-dimethylhexadecahydro-1H-cyclopenta[1,2-a]phenanthrene-6,7-diol]
IC50 ([1]; Homo sapiens, Huh-7, 16 h): 0.072 µM
IC50 ([2]; Homo sapiens, Huh-7, 16 h): < 200 nM

C[C@H](CCCC(O)c1ccc2c(n1)OC(F)(F)O2)[C@H]1CC[C@H]2[C@H]3[C@H](CC[C@]12C)[C@@]1(C)CC[C@H](O)[C@H](O)[C@@H]1CC3(F)F (single isomer, unassigned) [Compound 266]
IC50 ([1]; 16 hours): 0.099 µM
IC50 [2]: < 200 nM

C[C@H](CCCC(O)c1nnnn1C)[C@H]1CC[C@H]2[C@H]3[C@H](CC[C@]12C)[C@@]1(C)CC[C@H](O)C[C@@H]1CC3(F)F (stereo partly drawn) [Compound 373, (1R,3aS,3bR,5aR,7S,9aS,9bS,11aR)-4,4-difluoro-1-[(2R)-6-hydroxy-6-(1-methyl-1,2,3,4-tetrazol-5-yl)hexan-2-yl]-9a,11a-dimethylhexadecahydro-1H-cyclopenta[1,2-a]phenanthren-7-ol]
IC50 ([1]; Homo sapiens, Huh-7, 16 h): 0.078 µM
IC50 ([2]; Homo sapiens, Huh-7, 16 h): < 200 nM

COc1cccc(F)c1C(O)CCC[C@@H](C)[C@H]1CC[C@H]2C3=C(F)C[C@H]4[C@@H](O)[C@@H](O)CC[C@]4(C)[C@H]3CC[C@]12C (stereo partly drawn) [Compound 105, (1R,3aR,5aR,6R,7S,9aR,9bR,11aR)-4-fluoro-1-[(2R)-6-(2-fluoro-6-methoxyphenyl)-6-hydroxyhexan-2-yl]-9a,11a-dimethyl-2,3,3a,5,5a,6,7,8,9,9a,9b,10,11,11a-tetradecahydro-1H-cyclopenta[1,2-a]phenanthrene-6,7-diol]
IC50 ([1]; Homo sapiens, Huh-7, 16 h): 0.109 µM
IC50 ([2]; Homo sapiens, Huh-7, 16 h): 200 to 500 nM

COc1nc(F)ccc1[C@H](O)CCC[C@@H](C)[C@H]1CC[C@H]2[C@H]3[C@H](CC[C@]12C)[C@@]1(C)CC[C@H](O)C(=O)[C@@H]1CC3(F)F (single isomer, unassigned) [Compound 260]
IC50 ([1]; Homo sapiens, Huh-7, 16 h): 0.03 µM
IC50 ([2]; Homo sapiens, Huh-7, 16 h): < 200 nM

COc1ccc(C(O)CCC[C@@H](C)[C@H]2CC[C@H]3C4=C(F)C[C@H]5[C@@H](O)[C@@H](O)CC[C@]5(C)[C@H]4CC[C@]23C)c(F)c1 (stereo partly drawn) [Compound 68, (1R,3aR,5aR,6R,7S,9aR,9bR,11aR)-4-fluoro-1-[(2R)-6-(2-fluoro-4-methoxyphenyl)-6-hydroxyhexan-2-yl]-9a,11a-dimethyl-2,3,3a,5,5a,6,7,8,9,9a,9b,10,11,11a-tetradecahydro-1H-cyclopenta[1,2-a]phenanthrene-6,7-diol]
IC50 ([1]; Homo sapiens, Huh-7, 16 h): 0.434 µM
IC50 ([2]; Homo sapiens, Huh-7, 16 h): 200 to 500 nM

C[C@H](CCC[C@@H](O)c1nc2ccccc2n1C)[C@H]1CC[C@H]2[C@H]3[C@H](CC[C@]12C)[C@@]1(C)CC[C@H](O)[C@H](O)[C@@H]1CC3(F)F [Compound 307, (1R,3aS,3bS,5aR,6R,7S,9aR,9bS,11aR)-4,4-difluoro-1-[(2R,6R)-6-hydroxy-6-(1-methylbenzo[d]imidazol-2-yl)hexan-2-yl]-9a,11a-dimethylhexadecahydro-1H-cyclopenta[1,2-a]phenanthrene-6,7-diol]
IC50 ([1]; Homo sapiens, Huh-7, 16 h): 0.054 µM
IC50 ([2]; Homo sapiens, Huh-7, 16 h): < 200 nM

C[C@H](CCCC(O)c1nc2cccc(Br)c2n1C)[C@H]1CC[C@H]2[C@H]3[C@H](CC[C@]12C)[C@@]1(C)CC[C@H](O)[C@H](O)[C@@H]1CC3(F)F (stereo partly drawn) [Compound 212, (1R,3aS,3bS,5aR,6R,7 S,9aR,9bS,11aR)-1-[(2R)-6-(7-Bromo-1-methylbenzo[d]imidazol-2-yl)-6-hydroxyhexan-2-yl]-4,4-difluoro-9a,11a-dimethylhexadecahydro-1H-cyclopenta[1,2-a]phenanthrene-6,7-diol]
IC50 ([1]; Homo sapiens, Huh-7, 16 h): 0.08 µM
IC50 ([2]; Homo sapiens, Huh-7, 16 h): 200 to 500 nM

C[C@H](CCCC(O)c1ccc(F)nc1OC1CC1)[C@H]1CC[C@H]2[C@H]3[C@H](CC[C@]12C)[C@@]1(C)CC[C@H](O)C[C@@H]1CC3(F)F (stereo partly shown) [Compound 335]
IC50 ([1]; Homo sapiens, 16 hours): 0.045 µM
IC50 ([2]; Homo sapiens): < 200 nM

C[C@H](CCCC(O)c1cccc2c1OC(F)(F)O2)[C@H]1CC[C@H]2[C@H]3[C@H](CC[C@]12C)[C@@]1(C)CC[C@H](O)[C@H](O)[C@@H]1CC3(F)F (single isomer, unassigned) [Compound 194, (1R,3aS,3bS,5aR,6R,7S,9aR,9bS,11aR)-1-[(2R,6S)-6-(2,2-difluorobenzo[d][1,3]dioxol-4-yl)-6-hydroxyhexan-2-yl]-4,4-difluoro-9a,11a-dimethylhexadecahydro-1H-cyclopenta[1,2-a]phenanthrene-6,7-diol or (1R,3aS,3bS,5aR,6R,7S,9aR,9bS,11aR)-1-[(2R,6R)-6-(2,2-difluorobenzo[d][1,3]dioxol-4-yl)-6-hydroxyhexan-2-yl]-4,4-difluoro-9a,11a-dimethylhexadecahydro-1H-cyclopenta[1,2-a]phenanthrene-6,7-diol]
IC50 ([1]; Homo sapiens, Huh-7, 16 h): 0.102 µM
IC50 ([2]; Homo sapiens, Huh-7, 16 h): 200 to 500 nM
